Measurements published in ChEMBL document CHEMBL5303573, “Mapping human microbiome drug metabolism by gut bacteria and their genes” (Nature, 2019).

Experiments:
[1] = bifidobacterium adolescentis, 12 h, 2 µM
Description: The drug is tested on Bifidobacterium adolescentis strain: ATCC 15703 for biotransformation. The drug concentrations were measured before and after a 12-h incubation by liquid-chromatography-coupled mass spectrometry (LC–MS)

[2] = The drug is tested on Bifidobacterium breve strain: DSM20213 for biotransformation. The drug concentrations were measured before and after a 12-h incubation by liquid-chromatography-coupled mass spectrometry (LC–MS); settings: 2 µM
[3] = The drug is tested on Bacteroides sp. WH2 strain: WH2 for biotransformation. The drug concentrations were measured before and after a 12-h incubation by liquid-chromatography-coupled mass spectrometry (LC–MS); settings: bacteroides sp. wh2, 12 h, 2 µM
[4] = bacteroides intestinalis, 12 h, 2 µM
Description: The drug is tested on Bacteroides intestinalis strain: DSM17393 for biotransformation. The drug concentrations were measured before and after a 12-h incubation by liquid-chromatography-coupled mass spectrometry (LC–MS)

[5] = The drug is tested on Dorea formicigenerans strain: ATCC27755 for biotransformation. The drug concentrations were measured before and after a 12-h incubation by liquid-chromatography-coupled mass spectrometry (LC–MS); settings: 2 µM
[6] = bacteroides fragilis, 12 h, 2 µM
Description: The drug is tested on Bacteroides fragilis strain: 3397 (T10) for biotransformation. The drug concentrations were measured before and after a 12-h incubation by liquid-chromatography-coupled mass spectrometry (LC–MS)

[7] = The drug is tested on Bacteroides finegoldii strain: DSM17565 for biotransformation. The drug concentrations were measured before and after a 12-h incubation by liquid-chromatography-coupled mass spectrometry (LC–MS); settings: 2 µM
[8] = parabacteroides distasonis, 12 h, 2 µM
Description: The drug is tested on Parabacteroides distasonis strain: ATCC8503 for biotransformation. The drug concentrations were measured before and after a 12-h incubation by liquid-chromatography-coupled mass spectrometry (LC–MS)

[9] = The drug is tested on Eubacterium ventriosum strain: ATCC27560 for biotransformation. The drug concentrations were measured before and after a 12-h incubation by liquid-chromatography-coupled mass spectrometry (LC–MS); assay type: ADME; parameters: dose 2 uM, timepoint 0 vs 12 hours; settings: 2 µM
[10] = The drug is tested on Ruminococcus lactaris strain: ATCC29176 for biotransformation. The drug concentrations were measured before and after a 12-h incubation by liquid-chromatography-coupled mass spectrometry (LC–MS); settings: 2 µM
[11] = The drug is tested on Bacteroides coprophilus strain: DSM18228 for biotransformation. The drug concentrations were measured before and after a 12-h incubation by liquid-chromatography-coupled mass spectrometry (LC–MS); settings: 2 µM
[12] = The drug is tested on Escherichia coli strain: BW25113 for biotransformation. The drug concentrations were measured before and after a 12-h incubation by liquid-chromatography-coupled mass spectrometry (LC–MS); settings: 2 µM
[13] = roseburia intestinalis, 12 h, 2 µM
Description: The drug is tested on Roseburia intestinalis strain: L1-82 for biotransformation. The drug concentrations were measured before and after a 12-h incubation by liquid-chromatography-coupled mass spectrometry (LC–MS)

[14] = The drug is tested on Collinsella aerofaciens strain: ATCC25986 for biotransformation. The drug concentrations were measured before and after a 12-h incubation by liquid-chromatography-coupled mass spectrometry (LC–MS); settings: 2 µM
[15] = The drug is tested on Bacteroides caccae strain: ATCC43185 for biotransformation. The drug concentrations were measured before and after a 12-h incubation by liquid-chromatography-coupled mass spectrometry (LC–MS); settings: 2 µM
[16] = The drug is tested on Ruminococcus torques strain: ATCC27756 for biotransformation. The drug concentrations were measured before and after a 12-h incubation by liquid-chromatography-coupled mass spectrometry (LC–MS); assay type: ADME; parameters: dose 2 uM, timepoint 0 vs 12 hours; settings: 2 µM
[17] = bacteroides thetaiotaomicron, 12 h, 2 µM
Description: The drug is tested on Bacteroides thetaiotaomicron strain: 7330 for biotransformation. The drug concentrations were measured before and after a 12-h incubation by liquid-chromatography-coupled mass spectrometry (LC–MS)

[18] = The drug is tested on Anaerotruncus colihominis strain: DSM17241 for biotransformation. The drug concentrations were measured before and after a 12-h incubation by liquid-chromatography-coupled mass spectrometry (LC–MS); settings: 2 µM
[19] = akkermansia muciniphila, 12 h, 2 µM
Description: The drug is tested on Akkermansia muciniphila strain: ATCC BAA-835 for biotransformation. The drug concentrations were measured before and after a 12-h incubation by liquid-chromatography-coupled mass spectrometry (LC–MS)

[20] = The drug is tested on Bacteroides dorei strain: DSM17855 for biotransformation. The drug concentrations were measured before and after a 12-h incubation by liquid-chromatography-coupled mass spectrometry (LC–MS); settings: phocaeicola dorei, 2 µM

| Bacterial Biotransformation [1] | Bacterial Biotransformation [2] | Bacterial Biotransformation [3] | Bacterial Biotransformation [4] | Bacterial Biotransformation [5] | Bacterial Biotransformation [6] | Bacterial Biotransformation [7] | Bacterial Biotransformation [8] | Bacterial Biotransformation [9] | Bacterial Biotransformation [10] | Bacterial Biotransformation [11] | Bacterial Biotransformation [12] | Bacterial Biotransformation [13] | Bacterial Biotransformation [14] | Bacterial Biotransformation [15] | Bacterial Biotransformation [16] | Bacterial Biotransformation [17] | Bacterial Biotransformation [18] | Bacterial Biotransformation [19] | Bacterial Biotransformation [20] | SMILES |
| --- | --- | --- | --- | --- | --- | --- | --- | --- | --- | --- | --- | --- | --- | --- | --- | --- | --- | --- | --- | --- |
| Compound metabolized | Compound metabolized | Compound metabolized | Compound metabolized | Compound metabolized | Compound metabolized | Compound metabolized | Compound metabolized | Compound metabolized | Compound NOT metabolized | Compound metabolized | Compound metabolized | Compound metabolized | Compound metabolized | Compound metabolized | Compound metabolized | Compound metabolized | Compound NOT metabolized | Compound metabolized | Compound metabolized | CC(C)(Oc1ccc(CCNC(=O)c2ccc(Cl)cc2)cc1)C(=O)O [BEZAFIBRATE] |
| Compound metabolized | Compound metabolized | Compound metabolized | Compound metabolized | Compound metabolized | Compound metabolized | Compound metabolized | Compound metabolized | Compound metabolized | Compound metabolized | Compound metabolized | Compound metabolized | Compound metabolized | Compound metabolized | Compound metabolized | Compound metabolized | Compound metabolized | Compound metabolized | Compound metabolized | Compound metabolized | CC(=O)Oc1ccc(C(c2ccc(OC(C)=O)cc2)c2ccccn2)cc1 [BISACODYL] |
| Compound metabolized | Compound metabolized | – | Compound metabolized | Compound metabolized | Compound NOT metabolized | Compound metabolized | Compound metabolized | Compound metabolized | Compound metabolized | Compound NOT metabolized | Compound NOT metabolized | Compound NOT metabolized | Compound metabolized | Compound NOT metabolized | Compound metabolized | Compound metabolized | Compound metabolized | Compound NOT metabolized | Compound metabolized | CNC(=C[N+](=O)[O-])NCCSCc1csc(CN(C)C)n1 [NIZATIDINE] |

The remaining lines, values behind:

| SMILES | Bacterial Biotransformation [1] | Bacterial Biotransformation [2] | Bacterial Biotransformation [3] | Bacterial Biotransformation [4] | Bacterial Biotransformation [5] | Bacterial Biotransformation [6] | Bacterial Biotransformation [7] | Bacterial Biotransformation [8] | Bacterial Biotransformation [9] | Bacterial Biotransformation [10] | Bacterial Biotransformation [11] | Bacterial Biotransformation [12] | Bacterial Biotransformation [13] | Bacterial Biotransformation [14] | Bacterial Biotransformation [15] | Bacterial Biotransformation [16] | Bacterial Biotransformation [17] | Bacterial Biotransformation [18] | Bacterial Biotransformation [19] | Bacterial Biotransformation [20] |
| --- | --- | --- | --- | --- | --- | --- | --- | --- | --- | --- | --- | --- | --- | --- | --- | --- | --- | --- | --- | --- |
| N[C@@H](Cc1ccc(N(CCCl)CCCl)cc1)C(=O)O | Compound metabolized | Compound metabolized | Compound metabolized | Compound metabolized | Compound metabolized | Compound metabolized | Compound metabolized | Compound metabolized | Compound metabolized | Compound metabolized | Compound metabolized | Compound metabolized | Compound metabolized | Compound metabolized | Compound metabolized | Compound metabolized | Compound metabolized | Compound metabolized | Compound metabolized | Compound metabolized |
| CCN1CCCC1CNC(=O)c1cc(S(=O)(=O)CC)c(N)cc1OC (centres undefined) [AMISULPRIDE] | Compound NOT metabolized | Compound NOT metabolized | Compound NOT metabolized | Compound NOT metabolized | Compound NOT metabolized | Compound NOT metabolized | Compound NOT metabolized | Compound NOT metabolized | Compound NOT metabolized | Compound NOT metabolized | Compound NOT metabolized | Compound NOT metabolized | Compound NOT metabolized | Compound NOT metabolized | Compound NOT metabolized | Compound NOT metabolized | Compound NOT metabolized | Compound NOT metabolized | Compound NOT metabolized | Compound NOT metabolized |
| C[C@@H]1CC[C@H]2[C@@H](C)C(=O)O[C@@H]3O[C@@]4(C)CC[C@@H]1[C@]32OO4 [ARTEMISININ] | Compound metabolized | Compound metabolized | Compound metabolized | Compound metabolized | Compound metabolized | Compound metabolized | Compound metabolized | Compound metabolized | Compound metabolized | Compound metabolized | Compound metabolized | Compound metabolized | Compound metabolized | Compound metabolized | Compound metabolized | Compound metabolized | Compound metabolized | Compound metabolized | Compound metabolized | Compound metabolized |
| CN(C)C(=O)Oc1cc(OC(=O)N(C)C)cc(C(O)CNC(C)(C)C)c1 (centres undefined) [BAMBUTEROL] | Compound NOT metabolized | Compound NOT metabolized | Compound NOT metabolized | Compound NOT metabolized | Compound NOT metabolized | Compound NOT metabolized | Compound NOT metabolized | Compound NOT metabolized | Compound NOT metabolized | Compound NOT metabolized | Compound NOT metabolized | Compound NOT metabolized | Compound NOT metabolized | Compound NOT metabolized | Compound NOT metabolized | Compound NOT metabolized | Compound NOT metabolized | Compound NOT metabolized | Compound NOT metabolized | Compound NOT metabolized |
| CCOC(=O)[C@H](CCc1ccccc1)N[C@H]1CCc2ccccc2N(CC(=O)O)C1=O [BENAZEPRIL] | Compound NOT metabolized | Compound NOT metabolized | Compound metabolized | Compound metabolized | Compound NOT metabolized | Compound metabolized | Compound metabolized | Compound metabolized | Compound NOT metabolized | Compound NOT metabolized | Compound metabolized | Compound NOT metabolized | Compound metabolized | Compound metabolized | Compound metabolized | Compound NOT metabolized | Compound metabolized | Compound NOT metabolized | Compound NOT metabolized | Compound metabolized |
